We go through 29 compounds from PubChem BioAssay (NCI).

“And” between values parts separate entries of the source, which are not always exact repeats. Equal entries are not always repeated.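 Assay format: 96-well plates, 48-hour exposure. GI50 marks 50% less growth. TGI marks complete inhibition of growth.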

Holding throughout (experiment): NCI tumour cell line growth inhibition, 48 h
Test [1] deals with DMS 114 small cell lung.
Test [2] concerns HOP-18 NSCLC.
For test [3], the system named is LXFL 529 NSCLC.
Test [4] relates to M19-MEL melanoma.
The subject of test [5] is MDA-N.
Test [6] has as its system SNB-78 CNS.
Test [7] relates to XF 498 CNS.
Test [8] concerns RXF-631 renal.
The test system of test [9] is DMS 273 small cell lung.
Test [10] deals with P388 leukemia.
Test [11] concerns SN12K1 renal.

For `Cn1nnc2c(C(N)=O)ncn2c1=O`, the TGI in test [1], in [2], in [3], in test [4], in test [5] and in test [6] was above 100 µM throughout. Further, in test [7], the TGI was above 100 µM.
In the case of `O=C(N/C(=C\c1cc(Cl)ccc1Cl)c1nc2ccc(Cl)cc2[nH]1)c1ccccc1`, the TGI in test [1] was found to be 29.8 µM; in test [3], 28.1 µM; in [4] it was 30 µM; in test [6] it was 54.8 µM.
In turn, `CCN(CC)C(=O)COc1cc2c(O)c3c(O)c(C)c4c(c13)C(=O)C(C)(OC=CC(OC)C(C)C(OC(C)=O)C(C)C(O)C(C)C(O)C(C)C=CC=C(C)C(=O)N2)O4` (stereo not given) returned a TGI in [5] above 100 µM.
In the case of `CCCCCCCCCCCCCP(=O)(NCC(N)=O)OCC` (stereo not given), the TGI in [1] is 33.4 µM; in test [2], 14.8 µM; in test [3], 30.8 µM; in test [4], 35.2 µM; in [8], 35.5 µM; in [6], 41.2 µM. The TGI in [7] turned out to be 34.9 µM.
In the case of `CN1CCc2c1nc(-c1cccnc1)c1c2N(C)CC1`, the TGI in test [1], in [9], in [2], in test [3], in [4] and in [8] was above 100 µM each time. The TGI in test [6] and in [7] was above 100 µM throughout.
Consider `CCC1C(=O)OCc2c1cc1n(c2=O)C(CC)c2c-1nc1ccccc1c2Cl` (stereo not given), for which the TGI is above 100 µM in test [9]; 98.2 µM in test [2]; above 100 µM in test [3]; above 100 µM in [4]; above 100 µM in test [6]; 66.5 µM in test [7].
Turning to `O=C(O)COc1ccc(C(=O)/C(SS/C(C(=O)c2ccc(OCC(=O)O)c(Cl)c2Cl)=C2\C=C(c3ccc(Br)cc3)SS2)=C2/C=C(c3ccc(Br)cc3)SS2)c(Cl)c1Cl`, the TGI in test [1] was 6.76 µM; in test [9] it was above 100 µM; in [2], 39.9 µM; in test [3] it was 8.98 µM; in test [4], above 100 µM; in [6], 36.5 µM. In addition, in [7], the TGI was 9.89 µM.
For the compound `COC(=O)/C(C#N)=C1\CCc2ccccc21`, the TGI in [1], in test [9], in test [3], in [4] and in [7] was above 100 µM each time.
`N.N.N.N.N.O=S(=O)([O-])C(F)(F)F.O=S(=O)([O-])C(F)(F)F.[Os+8]`: in test [3], the GI50 was 9.12 µM and the TGI was 23.8 µM. Besides, in [6], the GI50 was 6.19 µM and the TGI turned out to be 77.6 µM.
Turning to `COC(=O)C#CCC1CCCC1C1SCCS1` (stereo not given), the TGI in test [1], in test [9], in test [2], in [3], in test [4] and in [8] was above 100 µM each time. Besides, the TGI in test [6] and in [7] was above 100 µM throughout.
Consider `O=C(O)[C@@H](NS(=O)(=O)c1ccc2ccccc2c1)c1ccccc1`, for which the TGI in [9], in test [2], in [3], in test [4], in test [8] and in test [7] was above 100 µM in each case.
As to `O=C(NCC(=O)N1CCOC1=O)OCc1ccccc1`, the TGI in test [1], in test [9], in [2], in [4], in [6] and in test [7] was above 100 µM in each case.
Turning to `C#C[C@H]1CCCCCC1O` (stereo not given in full), the TGI in test [1], in test [9], in test [2], in [3], in test [4] and in test [8] was above 100 µM in each case. Further, the TGI in test [6] and in test [7] was above 100 µM in each case.
As to `Nc1cc2cccc[n+]2c2cccc(Cl)c12`, in test [5], the GI50 was 21.3 µM and the TGI worked out at 61.5 µM.
In the case of `Cc1cc(C)nc(NS(=O)(=O)c2ccc(NC(=O)c3cccn4c(=O)c5ccccc5nc34)cc2)n1`, the TGI in [9], in [3], in [4], in test [6] and in test [7] was above 100 µM throughout.
Consider `Nc1ccc(C(=O)N/C(=C\c2cccc([N+](=O)[O-])c2)c2nc3ccc(Cl)cc3[nH]2)cc1`, for which the TGI in test [1], in [3], in [4], in test [8], in test [6] and in test [7] was above 100 µM throughout.
Regarding `Cc1nc2c(sc(=S)n2-c2ccccc2)c2nc3ccccc3n12`, the TGI in test [1], in test [9], in test [2], in test [3], in [4] and in [8] was above 100 µM each time. The TGI in test [6] was above 100 µM.
As for `NC(=O)C12CC3CC(CC(Br)(C3)C1)C2`, the TGI in test [1], in test [9], in test [2], in [3], in test [8] and in test [6] was above 100 µM in each case. The TGI in [7] was above 100 µM.
With `Cc1ccc(NC(=O)CC2SC(N)=NC2=O)cc1C` (stereo not given), the TGI in test [3], in [8], in [6] and in test [7] was above 100 µM each time.
In the case of `COc1cccc2c1[C@H]1CO[C@H]3C4C[C@H](C(=O)O)C([C@@H](C2)N13)N4C` (stereo not given in full), the GI50 was 0.187 µM in [1]; 0.516 µM in [9]; 1.13 µM in test [2]; 0.611 µM in test [4]; 0.388 µM in test [6]; 0.632 µM in test [7]. Further, the TGI in test [1] was 4.66 µM and 0.803 µM; in test [9] it was 1.31 µM; in test [2], above 27.5 µM; in test [3] it was 4.98 µM; in test [4], 9.62 µM and 1.32 µM; in test [5], 0.406 µM. Moreover, the TGI in [10] is 5.25 µM; in [11] it was 8.4 µM; in test [6], 9.27 µM and > 30.5 µM; in [7], 4.19 µM and 1.5 µM.
For `O=C(CCc1nc(=S)[nH][nH]1)Nc1cccc(C(F)(F)F)c1`, the TGI in [1], in [9], in [2], in [3], in [6] and in [7] was above 100 µM in each case.
Take `NCCC(=O)NC(Cc1cnc[nH]1)C(=O)O` (stereo not given): in test [5], the TGI was above 100 µM.
`CCC[CH2][Sn]([CH2]CCC)([O]C(=O)/C=C/c1ccccc1F)[O]C(=O)/C=C/c1ccccc1F`: the GI50 is 0.445 µM in test [1]; 1.16 µM in [9]; 1.62 µM in test [2]; 0.131 µM in test [3]; 0.891 µM in [4]; 0.253 µM in test [8]. For the same compound, the values for the GI50 in test [6] and in [7] were 0.452 µM and 0.258 µM, respectively. The TGI in test [1] was 1.46 µM; in test [9], 2.93 µM; in test [2] it was 2.98 µM; in [3], 0.304 µM; in test [4], 2.78 µM; in [8], 0.972 µM. Besides, the TGI was determined as 1.7 µM in test [6] and 0.892 µM in test [7].
Consider `COc1cc2c(c(OC)c1OC)-c1c(cc3c(c1OC)OCO3)CC(C)C(C)(O)C2OC(=O)c1ccccc1` (stereo not given), for which, in test [5], the TGI was above 100 µM.
Take `COCCOCOC(C)(C)[C@H](CCOC(C)=O)O[Si](c1ccccc1)(c1ccccc1)C(C)(C)C`: the TGI in test [1] was 55.4 µM; in test [9], 26.3 µM; in test [2], above 100 µM; in test [3], above 100 µM; in [4], 43.2 µM; in test [8] it was 43.1 µM. This compound gave a TGI in test [6] of 97.4 µM.
In test [5], `Clc1ccccc1NN(Cc1ccncc1)c1ccccc1Cl` came in with a TGI of 27.8 µM.
Consider `COc1ccc(Cc2nc3ccccc3s2)cc1OC`, for which the TGI in [1] was determined as 29.9 µM; in test [9], 29.2 µM; in test [2], 62.2 µM; in test [3] it was 31.4 µM; in test [4] it was 29.4 µM; in [8], 31.7 µM. The TGI in test [6] stood at 44.8 µM; in [7], 28.8 µM.
With `O=NN(CCCl)C(=O)NC1CCC(=O)NC1=O` (stereo not given), the TGI in test [1] is 814 µM; in [9] it was 634 µM; in test [2], 1070 µM; in [4], 972 µM; in test [5] it was 791 µM; in test [10], 256 µM. Moreover, the TGI in [11] came to 348 µM; in [6], 864 µM; in test [7], 265 µM.
As to `Nc1ncnc2c1nnn2C1C=C(CO)C(O)C1O` (stereo not given), the TGI in test [1] was above 86.2 µM; in test [9] it was above 100 µM; in [2], above 100 µM; in test [3], above 100 µM; in test [4], above 100 µM; in test [6] it was above 100 µM. The compound further had a TGI in test [7] above 100 µM.
